From patent publication US8287923B2, “Compositions and methods for treating immune disorders” (priority 2005, dated 2012)

Tested on: NS-SV-AC cells
Test: TNF-α-induced cytotoxicity, MTT assay
Assay type: cell-based, human
Settings: cells exposed to TNF-α and EGCG in presence of inhibitor
Experimental: TNF-α cyotoxicity: NS-SV-AC cells (0.5×10<4> cells/well) were seeded in a 96-well microplate and either treated for 24 hr with EGCC as described above (or not treated in the control), in the presence of 100 ng/ml TNFα and 10 μg/ml cyclohexamide. After the treatments, viability was determined by the MTT assay. The cells in each well were washed with 200 μl of phosphate-buffered saline (PBS) and incubated with 100 μl of 2% (w/v) MTT in a solution of 0.05 M Tris-HCl (pH 7.6), 0.5 mM MgCl2, 2.5 mM CoCl2 and 0.25 M disodium succinate at 37° C. for 30 min. Cells were fixed by the addition of 100 μl of 4% (v/v) formalin in 0.2 M Tris-HCl (pH 7.6), and after a 5 min incubation at room temperature liquid was removed and the wells were allowed to dry. Each well was rinsed with 200 μl water and cells were solubilized by the addition of 100 μl of 6.35% (v/v) 0.1 N NaOH in DMSO. The colored formazan product was measured by a Thermo MAX micro plate reader (Molecular Devices Corp. Sunnyvale, Calif.) at a wavelength of 562 nm.
We examined the effects of EGCG on TNF-α-induced cytotoxicity of the human salivary gland acinar cell line NS-SV-AC using the MTT assay.
To examine the role of activation of the p38 signaling pathway in reducing TNF-α-induced cytotoxicity, cells were exposed to TNF-[alpha] and EGCG in the presence of either the p38 MAPK inhibitor SB203580 or the MEK inhibitor PD98059.

In the case of `COc1cccc(-c2cc(=O)c3ccccc3o2)c1N` [PD98059], the “effect on protection by EGCG against TNF-α-induced loss of cell viability” value is reported as “significantly reduced the protective effect of EGCG”.

With `C[S+]([O-])c1ccc(-c2nc(-c3ccncc3)c(-c3ccc(F)cc3)[nH]2)cc1` (centres unmarked) [SB203580] the “effect on protection by EGCG against TNF-α-induced loss of cell viability” value was “significantly reduced the protective effect of EGCG”.
